Laboratory results reported in ChEMBL document CHEMBL4184163, “Aspergillus candidus is a newly recognized source of sphaeropsidin A: Isolation, semi-synthetic derivatization and anticancer evaluation” (Bioorg Med Chem Lett, 2017).
Activity calls are given as the source filed them. The calls are words filed in the database; no cut-off is given here.

How the values were obtained:
[1] = organism: Homo sapiens; assay: Antiproliferative activity against human D423 cells grown as 2D culture at 0.0625 to 10 uM after 5 days by CellTiter-Glo luminescence assay; assay type: functional, cell-based
[2] = organism: Homo sapiens; assay: Antiproliferative activity against human GLI56 cells grown as 2D culture at 0.0625 to 10 uM after 5 days by CellTiter-Glo luminescence assay; assay type: functional, cell-based
[3] = organism: Homo sapiens; assay: Antiproliferative activity against human D423 cells grown as 3D culture at 10 uM after 5 days by CellTiter-Glo 3D viability assay; assay type: functional, cell-based
[4] = organism: Homo sapiens; assay: Antiproliferative activity against human GLI56 cells grown as 3D culture at 10 uM after 5 days by CellTiter-Glo 3D viability assay; assay type: functional, cell-based
[5] = organism: Homo sapiens; assay: Cytotoxicity against human GLI56 cells grown as 3D culture assessed as disruption of morphological integrity at 10 uM after 5 days by confocal laser scanning microscopic method; assay type: functional, cell-based
[6] = test system: Panel NCI-60 (60 carcinoma cell lines); assay: Growth inhibition of human NCI60 cells; assay type: functional
[7] = Growth inhibition of normal human epidermal melanocytes by MTT assay; assay type: cell-based, Melanocyte
[8] = organism: Homo sapiens; assay: Cytotoxicity against human D423 cells grown as 3D culture assessed as disruption of morphological integrity at 10 uM after 5 days by confocal laser scanning microscopic method; assay type: functional, cell-based

Structure (SMILES) | Activity [1] | Activity [2] | Activity [3] | Activity [4] | Activity [5] | GI50 [6] [µM] | GI50 [7] [µM] | Activity [8]
C=C[C@]1(C)C=C2C(=O)[C@@]3(O)OC(=O)[C@@]4(CCCC(C)(C)[C@H]34)[C@@]2(O)CC1 [SPHAEROPSIDIN A] | Active | Active | inactive | inactive | inactive | 1.6 | 13 | 
C=CCCCC(=O)O[C@]12OC(=O)[C@@]3(CCCC(C)(C)[C@H]13)[C@@]1(O)CC[C@](C)(C=C)C=C1C2=O | Active | Active | inactive | Active | Active |  |  | 
C=C[C@]1(C)C=C2C(=O)[C@@]3(OC(=O)c4ccc(C)o4)OC(=O)[C@@]4(CCCC(C)(C)[C@H]34)[C@@]2(O)CC1 | Active | Active | Active | Active | Active |  |  | Active
C=C[C@]1(C)C=C2C(=O)[C@@]3(OC(=O)CCC)OC(=O)[C@@]4(CCCC(C)(C)[C@H]34)[C@@]2(O)CC1 | Active | Active | inactive | Active | Active |  |  | 
CC1(C)CCC[C@]23C(=O)O[C@](O)(C(=O)C4=C[C@@](C)(/C=C/c5ccc(Cl)cc5)CC[C@@]42O)[C@@H]13 | Active | Active | Active | Active | Active |  |  | Active
CC1(C)CCC[C@]23C(=O)O[C@](O)(C(=O)C4=C[C@@](C)(/C=C/[Si](C)(C)C)CC[C@@]42O)[C@@H]13 | Active | Active | inactive | inactive |  |  |  | 
